Biological target: E. coli DNA primase (Escherichia coli, UniProt P0ABS5)
Experiment: Fluorescence-based E. coli DNA primase HTS assay in the presence of helicase (SYBR Green II)
Type: biochemical
Settings: for inhibition of primase activity: 50 mM salt
Protocol: The reaction was carried out on a Costar 384-well black plate. The reaction volume was 30 μl. The final concentrations in the reaction were 50 mM Tris-HCl, pH 7.5, 10 mM Mg(OAc)2, 10 mM DTT, 25 mM potassium glutamate, 0.003% Brij-35, 200 nM DNA, 25 nM helicase, 75 nM E. coli DNA primase, 200 μM ATP and 200 μM GTP. To perform the HTS assay, 2 μl of compound/DMSO solution or aqueous DMSO solution was incubated with 23 μl of a reaction premix at room temperature for 15 min. The reaction premix was a 1.3× concentrated reaction solution without NTPs. After the incubation, 5 μl of a substrate solution with 1.2 mM ATP and 1.2 mM GTP were added to initiate the reaction. The reaction was incubated at room temperature for 40 min. Then 25 μl of a 30×SYBR Green II solution with 1.2 M NaCl was added and the fluorescence was measured (excitation at 485 nm, emission at 535 nm).
A dideoxy NTP was used as a positive inhibitory control for the primase reaction. […] Since ddATP competes with NTP (ATP in this case) in the primase reaction, the IC50 value was dependent on the substrate (ATP) concentration. Under the HTS conditions used, the IC50 of ddATP was 10 μM

E. coli DNA primase, sequence (P0ABS5 whole entry): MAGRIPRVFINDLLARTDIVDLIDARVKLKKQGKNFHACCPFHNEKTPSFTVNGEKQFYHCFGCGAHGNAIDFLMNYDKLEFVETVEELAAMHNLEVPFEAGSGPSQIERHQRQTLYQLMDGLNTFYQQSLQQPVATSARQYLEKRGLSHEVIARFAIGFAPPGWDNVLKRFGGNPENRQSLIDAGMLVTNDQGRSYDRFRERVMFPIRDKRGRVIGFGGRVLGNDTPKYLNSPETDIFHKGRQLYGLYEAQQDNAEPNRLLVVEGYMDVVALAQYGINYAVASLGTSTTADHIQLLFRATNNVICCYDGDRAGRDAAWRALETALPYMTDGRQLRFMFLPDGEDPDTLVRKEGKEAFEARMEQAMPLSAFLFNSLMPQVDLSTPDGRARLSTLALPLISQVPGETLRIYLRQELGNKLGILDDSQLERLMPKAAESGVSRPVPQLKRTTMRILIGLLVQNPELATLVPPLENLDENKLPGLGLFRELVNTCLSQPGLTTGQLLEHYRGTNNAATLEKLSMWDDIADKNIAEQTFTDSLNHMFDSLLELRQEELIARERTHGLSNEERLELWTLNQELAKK

Molecule	inhibition of primase activity	also measured
5′-CTCTCTCTCTCTCTCTCTCTCTCTCTCTCTCTCTGCAAAGC-3′ [DNA7]		Km (DNA template concentration dependence, FIG. 5, read-out: apparent Km for DNA): 0.105 µM
[Cl-].[K+] [KCl]	approximately 50%	
[Cl-].[Na+] [NaCl]	approximately 50%	
Nc1ncnc2c1ncn2[C@H]1CC[C@@H](COP(=O)(O)OP(=O)(O)OP(=O)(O)O)O1 [ddATP]		IC50 (HTS conditions, 200 μM ATP and 200 μM GTP, IC50 dependent on ATP concentration (competes with ATP), read-out: IC50 of inhibition of primase activity): 10 µM

— patent US20070092879A1, “Fluoresence-based dna primase assays” (AstraZeneca AB, priority 2003, published 2007)
